Data on 12 compounds can be found in patent US9562035B2, “Benzamide derivative useful as FASN inhibitors for the treatment of cancer” (Janssen Pharmaceutica NV, priority 2013, dated 2017).

Assay [1] addresses T1, hFASN enzyme (full length) (Homo sapiens, UniProt P49327).
T1 construct: 10 μL hFASN enzyme (full length, 300 ng, purified in house); made in house
Nature of the assay: Fatty Acid Synthase (FASN) Inhibition Scintillation Proximity Assay. It counts as biochemical. The following applies: for IC50: mean where tested more than once, ~ = standard error of pIC50 larger than 0.5; for inhibition at 10 µM: read-out: FASN % Effect @1E−05M. As for the experimental part: In this assay, inhibition of FASN activity is measured using ^3H-acetyl-CoA and malonyl-CoA as substrates. ^3H-Acetyl CoA is converted to ^3H-palmitate through a series of reactions by the FASN protein, which contains 7 functional domains and carries out 7 enzymatic reactions to ultimately produce ^3H-palmitate. The assay principle is based upon the fact that ^3H-acetyl-CoA is hydrophilic and the end product, ^3H-palmitate is hydrophobic.
10 μL assay buffer (100 mM KH2PO4 pH 7.5, 1 mM DTT) (20 μL in blanks) was added to a 384-well white Opti Plate plate (Perkin Elmer). 0.9 μL test compound (at concentrations of 30 μM, 10 μM, 3 μM, 1 μM, 0.30 μM, 0.10 μM, 0.03 μM and 0.01 μM)/DMSO and 10 μL hFASN enzyme (full length, 300 ng, purified in house) or 10 μL assay buffer was added to the wells. Then 10 μL 450 μM NADPH (Sigma N7505), 18.75 μM [^3H]-acetyl-CoA (Perkin Elmer NET-290L), 150 μM malonyl-CoA (Sigma M4263) were added, mixed and incubated at room temperature for 60 minutes. The reaction was stopped by adding 20 μL Streptavidin coupled imaging beads (25 mg/ml). After incubation for 30 minutes at room temperature in the dark, the 384 well plate was centrifuged at 1500 rpm for 3 minutes and was measured after at least 24 hrs by the LEADseeker™, measuring emission using a 610±20 nm pass filter. (Bays, N. W., et al., “A simplified scintillation proximity assay for fatty acid synthase activity: development and comparison with other FAS activity assays”, J. Biomol. Screen, 2009, pp 636-642, Vol. 14(6).)
(§1) Raw data generated by the instrument were normalized to % Controlmin values, which were calculated as: % Controlmin=100*(x−mLC)/(mHC−mLC)
(§2) where mLC and mHC were the means of the low control wells and high control wells on the plate, after manual exclusion of outliers. A plot of Controlmin versus test compound concentration was fitted to a 4-parameter logistic curve using a non-linear least squares regression method. From the plot, an IC50 (concentration at which 50% inhibition is achieved) was calculated. pIC50 values were calculated as −log(IC50), when IC50 is expressed in molar units.
On the technique in general: In a scintillation proximity assay essentially only radioactivity close to the scintillant gives light.

The target in assay [2] is T2, FASN Keto-reductase Domain (Homo sapiens, UniProt P49327).
T2 construct: 10 μL hFASN enzyme (full length, 300 ng, purified in house) and 360 μM NADPH; made in house
T2 sequence (P49327 whole entry, the tested form may be a part): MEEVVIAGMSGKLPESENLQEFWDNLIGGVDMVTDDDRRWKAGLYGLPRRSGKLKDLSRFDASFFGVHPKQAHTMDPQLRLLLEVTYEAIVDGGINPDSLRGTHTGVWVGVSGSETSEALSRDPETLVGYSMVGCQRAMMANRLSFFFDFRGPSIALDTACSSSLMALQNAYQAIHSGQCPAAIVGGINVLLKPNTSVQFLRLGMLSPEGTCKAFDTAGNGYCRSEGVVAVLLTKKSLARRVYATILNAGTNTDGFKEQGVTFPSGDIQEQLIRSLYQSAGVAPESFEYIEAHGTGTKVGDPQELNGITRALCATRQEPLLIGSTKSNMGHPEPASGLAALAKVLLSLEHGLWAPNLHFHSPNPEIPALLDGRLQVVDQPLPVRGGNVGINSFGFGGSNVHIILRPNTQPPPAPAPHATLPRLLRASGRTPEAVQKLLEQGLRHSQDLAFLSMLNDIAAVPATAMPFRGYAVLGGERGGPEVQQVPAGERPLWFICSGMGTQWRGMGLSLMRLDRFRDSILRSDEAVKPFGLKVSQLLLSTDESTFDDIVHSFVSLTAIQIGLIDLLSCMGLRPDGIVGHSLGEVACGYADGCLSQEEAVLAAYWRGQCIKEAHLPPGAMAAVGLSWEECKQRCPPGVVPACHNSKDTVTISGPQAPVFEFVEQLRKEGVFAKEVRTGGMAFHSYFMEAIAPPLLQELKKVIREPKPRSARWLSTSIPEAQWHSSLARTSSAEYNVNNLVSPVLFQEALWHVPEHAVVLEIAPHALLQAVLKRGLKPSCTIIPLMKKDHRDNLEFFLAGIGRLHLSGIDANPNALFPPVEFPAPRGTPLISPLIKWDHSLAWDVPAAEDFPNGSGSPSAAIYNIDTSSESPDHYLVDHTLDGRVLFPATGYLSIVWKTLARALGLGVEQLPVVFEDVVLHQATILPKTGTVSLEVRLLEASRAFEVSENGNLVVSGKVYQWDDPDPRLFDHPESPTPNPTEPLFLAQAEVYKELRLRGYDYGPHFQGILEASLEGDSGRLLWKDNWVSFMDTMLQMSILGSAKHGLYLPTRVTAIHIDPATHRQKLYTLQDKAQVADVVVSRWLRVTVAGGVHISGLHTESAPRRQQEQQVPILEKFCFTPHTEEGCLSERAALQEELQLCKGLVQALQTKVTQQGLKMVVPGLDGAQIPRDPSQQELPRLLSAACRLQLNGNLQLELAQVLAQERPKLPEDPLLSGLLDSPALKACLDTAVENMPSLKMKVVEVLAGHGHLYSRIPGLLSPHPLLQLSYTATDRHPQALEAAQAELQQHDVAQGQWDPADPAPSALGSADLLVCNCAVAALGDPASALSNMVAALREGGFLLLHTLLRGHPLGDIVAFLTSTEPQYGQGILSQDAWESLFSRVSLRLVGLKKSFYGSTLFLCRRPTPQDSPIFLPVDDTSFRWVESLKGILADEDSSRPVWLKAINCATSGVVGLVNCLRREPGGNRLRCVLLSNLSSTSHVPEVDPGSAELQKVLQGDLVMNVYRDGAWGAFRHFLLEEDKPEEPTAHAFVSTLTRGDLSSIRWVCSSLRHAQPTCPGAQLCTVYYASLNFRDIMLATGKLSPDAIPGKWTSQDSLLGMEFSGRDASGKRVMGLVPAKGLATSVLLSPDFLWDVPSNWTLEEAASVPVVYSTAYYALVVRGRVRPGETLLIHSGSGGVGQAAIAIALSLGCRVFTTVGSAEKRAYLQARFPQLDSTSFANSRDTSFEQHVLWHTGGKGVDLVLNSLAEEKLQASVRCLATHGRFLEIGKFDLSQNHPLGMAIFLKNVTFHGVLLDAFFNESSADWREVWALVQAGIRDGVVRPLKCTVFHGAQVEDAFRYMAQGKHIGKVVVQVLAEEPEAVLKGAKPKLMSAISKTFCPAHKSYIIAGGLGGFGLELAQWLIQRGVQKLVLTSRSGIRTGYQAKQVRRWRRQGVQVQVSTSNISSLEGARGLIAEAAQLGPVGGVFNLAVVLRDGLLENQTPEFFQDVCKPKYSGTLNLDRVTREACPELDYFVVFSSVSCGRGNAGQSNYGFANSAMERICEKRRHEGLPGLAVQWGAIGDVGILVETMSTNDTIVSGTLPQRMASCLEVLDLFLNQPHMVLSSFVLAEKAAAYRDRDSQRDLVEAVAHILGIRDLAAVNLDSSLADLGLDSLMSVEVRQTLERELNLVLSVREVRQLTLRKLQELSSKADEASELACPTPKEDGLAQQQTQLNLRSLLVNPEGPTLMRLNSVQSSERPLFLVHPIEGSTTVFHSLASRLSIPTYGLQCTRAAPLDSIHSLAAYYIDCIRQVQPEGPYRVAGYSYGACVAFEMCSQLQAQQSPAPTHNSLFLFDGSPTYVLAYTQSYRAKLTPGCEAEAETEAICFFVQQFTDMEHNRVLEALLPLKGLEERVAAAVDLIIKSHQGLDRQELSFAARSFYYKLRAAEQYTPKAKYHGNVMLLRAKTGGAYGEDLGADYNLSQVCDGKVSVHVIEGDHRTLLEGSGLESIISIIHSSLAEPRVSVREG
Nature of the assay: Fatty Acid Synthase Keto-Reductase Domain (FASN KR) Inhibition. It counts as biochemical. The following applies: mean where tested more than once; read-out: FASN K-R Domain pIC50 (converted). As for the experimental part: 10 μL assay buffer (100 mM KH2PO4 pH 7.5) was added to a 384-well clear plate (costar 3702). 0.3 μL compound (at concentrations of 30 μM, 10 μM, 3 μM, 1 μM, 0.30 μM, 0.10 μM, 0.03 μM and 0.01 μM)/DMSO, 10 μL hFASN enzyme (full length, 300 ng, purified in house) and 360 μM NADPH (except in blank) were then added. Then, 10 μL 180 mM ethyl acetoacetate (Aldrich 688983) was added, mixed and immediately thereafter, the absorbance at 340 nm (T1) by Multiscan (Labsystems) was measured. After 20 minutes incubation at room temperature the plate was measured again (T2).
The decrease in absorbance was calculated as (Absorbance before incubation T1)−(Absorbance following incubation T2).
as §1, §2

The subject of assay [3] is A2780 ovarian cells. Nature of the assay: A2780 Ovarian Cell Proliferation Assay in Lipid Reduced Medium, without Palmitate. It counts as cell-based. The following applies: Homo sapiens, A2780; lipid reduced medium, without palmitate, 96 h, MTT; read-out: Proliferation A2780 w/o Palmitate pIC50 (converted). As for the experimental part:
(§3) The biological assays described below correspond to comparative assays for ovarian cell proliferation. […] Compounds active in the absence of palmitate would not be expected to be active in the control.
(§4) 2500 cells were seeded in a 96-well clear well plate in 200 μL RPMI1640 with 10% Fetal Calf Serum (Hyclone), and incubated at 37° C., 5% CO2. Blanks were wells without cells. The next day the culture medium was aspirated and replaced by 160 μL culture medium with 10% Lipid-Reduced Serum (LRS, Hyclone). 20 μL test compound (at concentrations of 30 μM, 10 μM, 3 μM, 1 μM, 0.30 μM, 0.10 μM, 0.03 μM and 0.01 μM)/DMSO dilution followed by 20 μL ethanol-BSA solution were added to a final concentrations of 0.2% DMSO, 0.2% fatty-acid-free BSA, 0.25% ethanol. After 96 h incubation an MTT assay was performed. The absorbance was measured at 544 nm on a SPECTRAMAX.
as §1, §2
(§5) Representative compounds of the present invention were tested according to the procedure as described in Biological Example 3 above, with results as listed in Table BIO-3, below.

Assay [4] concerns A2780 ovarian cells. Nature of the assay: A2780 Ovarian Cell Proliferation Assay in Lipid Reduced Medium, with Palmitate (control). As to conditions: Homo sapiens, A2780; lipid reduced medium, 25 μM palmitate, 96 h, MTT; read-out: Proliferation A2780 with Palmitate pIC50 (converted). The class given is cell-based. As for the experimental part:
as §3
as §4, with “palmitate-BSA” for “ethanol-BSA”, “DMSO, 25 μM palmitate (Sigma, P0500, 10 mM stock solution in ethanol)” for “DMSO,”, “incubation,” for “incubation”
A best fit curve was fitted by a minimum sum of squares method, plotting Controlmin versus test compound concentration. From the plot, an IC50 (concentration at which 50% inhibition is achieved) was calculated. pIC50 values, presented in the Table below, were calculated as −log(IC50).
as §5

T1 sequence (P49327 whole entry): as the sequence (P49327 whole entry, the tested form may be a part) above

Regarding `Cc1ccc(C(=O)N2CC(c3ccc(-c4cnn(C)c4)cc3)C2)cc1NC(=O)c1ccc(Cl)nc1` [Compound 4, 6-chloro-N-(2-methyl-5-(3-(4-(1-methyl-1H-pyrazol-4-yl)phenyl)azetidine-1-carbonyl)phenyl)nicotinamide], the IC50 was 39.8 nM in assay [1], 97.7 nM in assay [2], 174 nM in the assay with A2780 ovarian cells [3] and above 10000 nM in the assay on A2780 ovarian cells [4]. Moreover, the inhibition at 10 µM in assay [1] worked out at 109%.
For `Cc1ccc(C(=O)N2CC(c3ccc(-c4cccnc4)cc3)C2)cc1NC(=O)c1ccc(NC(C)C)nc1` [Compound 10, 6-(isopropylamino)-N-(2-methyl-5-(3-(4-(pyridin-3-yl)phenyl)azetidine-1-carbonyl)phenyl)nicotinamide] the same measures were 32.4 nM, 44.7 nM, around 57.5 nM, above 15100 nM and 103%.
For `Cc1ccc(C(=O)N2CC(c3ccc(-c4cccc5ncccc45)cc3)C2)cc1NC(=O)c1ccc(NC(C)C)nc1` [Compound 12, 6-(isopropylamino)-N-(2-methyl-5-(3-(4-(quinolin-5-yl)phenyl)azetidine-1-carbonyl)phenyl)nicotinamide] the same measures were 38.9 nM, 22.9 nM, 49 nM, 2240 nM and 111%.
For `CCC(=O)N[C@@H]1CC[C@H](C(=O)Nc2cc(C(=O)N3CCC(c4ccc(-c5ccnn5C)cc4)CC3)ccc2C)C1` [Compound 13, (1S,3R)—N-(2-methyl-5-(4-(4-(1-methyl-1H-pyrazol-5-yl)phenyl)piperidine-1-carbonyl)phenyl)-3-propionamidocyclopentanecarboxamide], in that order: 126 nM, 229 nM, 603 nM, above 10000 nM and 99%.
In the case of `Cc1ccc(C(=O)N2CC(c3ccc(-c4ccc5c(cnn5C)c4)cc3)C2)cc1NC(=O)c1ccc(NC(C)C)nc1` [Compound 16, 6-(isopropylamino)-N-(2-methyl-5-(3-(4-(1-methyl-1H-indazol-5-yl)phenyl)azetidine-1-carbonyl)phenyl)nicotinamide], the IC50 in assay [1] was 95.5 nM; in assay [2], 95.5 nM; with A2780 ovarian cells [3], 1410 nM; in the assay with A2780 ovarian cells [4], above 10000 nM. Further, the inhibition at 10 µM in assay [1] came out at 106%.
Take `Cc1ccc(C(=O)N2CCC(c3ccc4c(c3)NC(=O)CC4)CC2)cc1NC(=O)c1ccc(Cl)nc1` [Compound 23, 6-chloro-N-(2-methyl-5-(4-(2-oxo-1,2,3,4-tetrahydroquinolin-7-yl)piperidine-1-carbonyl)phenyl)nicotinamide]: the IC50 in assay [1] was 589 nM; in assay [2] it was 1170 nM; in the assay on A2780 ovarian cells [3], 1120 nM; in the assay with A2780 ovarian cells [4], around 10000 nM. In addition, the inhibition at 10 µM in assay [1] is 93%.
In the case of `Cc1ccc(C(=O)N2CC(c3ccc(-c4cnn(C)c4)cc3)C2)cc1NC(=O)c1ccc(NC(C)C)nc1` [Compound 24, 6-(isopropylamino)-N-(2-methyl-5-(3-(4-(1-methyl-1H-pyrazol-4-yl)phenyl)azetidine-1-carbonyl)phenyl)nicotinamide], the IC50 was 33.9 nM in assay [1], 38.9 nM in assay [2], 85.1 nM with A2780 ovarian cells [3] and above 10000 nM with A2780 ovarian cells [4]. The inhibition at 10 µM in assay [1] is 111%.
For `Cc1ccc(C(=O)N2CC(c3ccc(-c4ccnn4C)cc3)C2)cc1NC(=O)c1ccc(NC(C)C)nc1` [Compound 25, 6-(isopropylamino)-N-(2-methyl-5-(3-(4-(1-methyl-1H-pyrazol-5-yl)phenyl)azetidine-1-carbonyl)phenyl)nicotinamide] the same measures were 28.2 nM, 45.7 nM, 34.7 nM, around 2090 nM and 109%.
For `Cc1ccc(C(=O)N2CC(c3ccc(-c4ccsc4)cc3)C2)cc1NC(=O)c1ccc(NC(C)C)nc1` [Compound 26, 6-(isopropylamino)-N-(2-methyl-5-(3-(4-(thiophen-3-yl)phenyl)azetidine-1-carbonyl)phenyl)nicotinamide], in that order: 32.4 nM, 40.7 nM, around 2290 nM, above 10000 nM and 105%.
For `Cc1ccc(C(=O)N2CCC(c3ccc4ccncc4c3)CC2)cc1NC(=O)c1ccc(NC(C)C)nc1` [Compound 28, 6-(isopropylamino)-N-(5-(4-(isoquinolin-7-yl)piperidine-1-carbonyl)-2-methylphenyl)nicotinamide], in that order: 174 nM, 282 nM, around 204 nM, 2450 nM and 101%.
On to `Cc1ccc(C(=O)N2CC(c3ccc(-c4ccc5cnccc5c4)cc3)C2)cc1NC(=O)c1ccc(NC(C)C)nc1` [Compound 29, 6-(isopropylamino)-N-(5-(3-(4-(isoquinolin-6-yl)phenyl)azetidine-1-carbonyl)-2-methylphenyl)nicotinamide], for which the IC50 in assay [1] is 33.9 nM; in assay [2], 29.5 nM; in the assay with A2780 ovarian cells [3], 174 nM; with A2780 ovarian cells [4], above 15100 nM. Besides, the inhibition at 10 µM in assay [1] turned out to be 103%.
For `Cc1ccc(C(=O)N2CC(c3ccc(-c4ccncc4)cc3)C2)cc1NC(=O)c1ccc(NC(C)C)nc1` [Compound 31, 6-(isopropylamino)-N-(2-methyl-5-(3-(4-(pyridin-4-yl)phenyl)azetidine-1-carbonyl)phenyl)nicotinamide], in that order: around 17.8 nM, 52.5 nM, 25.1 nM, 1660 nM and 104%.
